Data from publication PMC9948168, “Vanillin-Based Indolin-2-one Derivative Bearing a Pyridyl Moiety as a Promising Anti-Breast Cancer Agent via Anti-Estrogenic Activity” (ACS Omega, 2023).

Legend:
Test in all cases: NCI-60 one-dose screening
Assay type in all cases: cell-based
NCI-H460 = conditions: Homo sapiens, NCI-H460, Non-Small Cell Lung Cancer, read-out: GI (%)
SW-620 = conditions: Homo sapiens, SW-620, Colon Cancer, read-out: GI (%)
UACC-257 = conditions: Homo sapiens, UACC-257, Melanoma, read-out: GI (%)
SK-OV-3 = conditions: Homo sapiens, SK-OV-3, Ovarian Cancer, read-out: GI (%)
HOP-92 = conditions: Homo sapiens, HOP-92, Non-Small Cell Lung Cancer, read-out: GI (%)
COLO 205 = conditions: Homo sapiens, COLO 205, Colon Cancer, read-out: GI (%)
DU-145 = conditions: Homo sapiens, DU-145, Prostate Cancer, read-out: GI (%)
HOP-62 = conditions: Homo sapiens, HOP-62, Non-Small Cell Lung Cancer, read-out: GI (%)
IGROV1 = conditions: Homo sapiens, IGROV-1, IGROV1, Ovarian Cancer, read-out: GI (%)
KM12 = conditions: Homo sapiens, KM12, Colon Cancer, read-out: GI (%)
LOX IMVI = conditions: Homo sapiens, Melanoma, read-out: GI (%)
SNB-75 = conditions: Homo sapiens, SNB-75, CNS Cancer, read-out: GI (%)
MALME-3M = conditions: Homo sapiens, Melanoma, read-out: GI (%)
TK-10 = conditions: Homo sapiens, TK-10, Renal Cancer, read-out: GI (%)
OVCAR-8 = conditions: Homo sapiens, OVCAR-8, Ovarian Cancer, read-out: GI (%)
HCT-15 = conditions: Homo sapiens, HCT-15, Colon Cancer, read-out: GI (%)
MDA-MB-231/ATCC = conditions: Homo sapiens, Breast Cancer, read-out: GI (%)
RPMI-8226 = conditions: Homo sapiens, RPMI-8226, Leukemias, read-out: GI (%)
CCRF-CEM = conditions: Homo sapiens, Leukemias, read-out: GI (%)
HT29 = conditions: Homo sapiens, HT-29, HT29, Colon Cancer, read-out: GI (%)
NCI-H322M = conditions: Homo sapiens, Non-Small Cell Lung Cancer, read-out: GI (%)
A498 = conditions: Homo sapiens, A498, Renal Cancer, read-out: GI (%)
SF-539 = conditions: Homo sapiens, SF-539, CNS Cancer, read-out: GI (%)
ACHN = conditions: Homo sapiens, Renal Cancer, read-out: GI (%)
MCF7 = conditions: Homo sapiens, MCF7, 10 μM; MCF7, Breast Cancer; read-out: GI (%)
K-562 = conditions: Homo sapiens, K562, K-562, Leukemias, read-out: GI (%)
U251 = conditions: Homo sapiens, U-251, U251, CNS Cancer, read-out: GI (%)
SN12C = conditions: Homo sapiens, Renal Cancer, read-out: GI (%)
MDA-MB-468 = conditions: Homo sapiens, MDA-MB-468, Breast Cancer, read-out: GI (%)
MDA-MB-435 = conditions: Homo sapiens, MDA-MB-435, Melanoma, read-out: GI (%)
NCI-H226 = conditions: Homo sapiens, NCI-H226, Non-Small Cell Lung Cancer, read-out: GI (%)
OVCAR-5 = conditions: Homo sapiens, OVCAR-5, Ovarian Cancer, read-out: GI (%)
SR = conditions: Homo sapiens, Leukemias, read-out: GI (%)
HCT-116 = conditions: Homo sapiens, HCT-116, Colon Cancer, read-out: GI (%)
786-0 = conditions: Homo sapiens, 786-0, Renal Cancer, read-out: GI (%)
PC-3 = conditions: Homo sapiens, PC-3, Prostate Cancer, read-out: GI (%)

Row | SMILES | inhibition at 10 µM (NCI-H460) | inhibition at 10 µM (SW-620) | inhibition at 10 µM (UACC-257) | inhibition at 10 µM (SK-OV-3) | inhibition at 10 µM (HOP-92) | inhibition at 10 µM (COLO 205) | inhibition at 10 µM (DU-145) | inhibition at 10 µM (HOP-62) | inhibition at 10 µM (IGROV1) | inhibition at 10 µM (KM12) | inhibition at 10 µM (LOX IMVI) | inhibition at 10 µM (SNB-75) | inhibition at 10 µM (MALME-3M) | inhibition at 10 µM (TK-10) | inhibition at 10 µM (OVCAR-8) | inhibition at 10 µM (HCT-15) | inhibition at 10 µM (MDA-MB-231/ATCC) | inhibition at 10 µM (RPMI-8226) | inhibition at 10 µM (CCRF-CEM) | inhibition at 10 µM (HT29) | further results
1 | COc1cc(C=C2C(=O)Nc3ccc(Cl)cc32)ccc1OCc1ccccn1 (mixture of isomers) [6j] | -4.56% | 2.21% | -5.04% | -4.32% | -0.22% | -10.1% | -7.75% | 5.56% | 13.4% | -0.52% | 14.8% | 14.8% | 1.35% | -46.6% | 3.83% | 22.8% | 4.62% | 0.53% | 2.39% | -8.55% | inhibition at 10 µM (NCI-H322M): 2.99%; inhibition at 10 µM (A498): 0.8%; inhibition at 10 µM (SF-539): 4.61%; inhibition at 10 µM (ACHN): 3.24%; inhibition at 10 µM (MCF7): 63%; inhibition at 10 µM (K-562): 5.33%; inhibition at 10 µM (U251): 5.39%; inhibition at 10 µM (SN12C): 3.96%; inhibition at 10 µM (MDA-MB-468): 14.6%; inhibition at 10 µM (MDA-MB-435): -3.49%; inhibition at 10 µM (NCI-H226): 6.59%; inhibition at 10 µM (OVCAR-5): 0.34%; inhibition at 10 µM (SR): 11.5%; inhibition at 10 µM (HCT-116): -2.75%; inhibition at 10 µM (786-0): -1.2%; inhibition at 10 µM (PC-3): 11.7%
2 | COc1cc(/C=C2/C(=O)Nc3cc(Cl)ccc32)ccc1OCc1ccccn1 [6o] | -3.23% | 0.42% | -22.8% | -7.09% | -5.39% | -18.8% | -7.21% | 3.58% | 25.2% | 2.85% | 2.38% | -0.58% | 4.92% | -69.3% | -2.7% | 7.58% | 13.4% | -0.91% | -8.83% | -15.4% | inhibition at 10 µM (NCI-H322M): 0.51%; inhibition at 10 µM (A498): -7.62%; inhibition at 10 µM (SF-539): 4.76%; inhibition at 10 µM (ACHN): 5.07%; inhibition at 10 µM (MCF7): 27.7%; inhibition at 10 µM (K-562): 8.79%; inhibition at 10 µM (U251): -7.72%; inhibition at 10 µM (SN12C): -4.12%; inhibition at 10 µM (MDA-MB-468): -3.25%; inhibition at 10 µM (MDA-MB-435): -6.9%; inhibition at 10 µM (NCI-H226): 5.24%; inhibition at 10 µM (OVCAR-5): 2.11%; inhibition at 10 µM (SR): 6.43%; inhibition at 10 µM (HCT-116): 2.05%; inhibition at 10 µM (786-0): -11.2%; inhibition at 10 µM (PC-3): 2.25%
